Laboratory results as given in the supplement of paper PMC10307832.

What was measured:
Assay in all cases: relative viability (nuclei count vs DMSO), 5 days (fraction); higher = more cells survive
NCI-H1437 = tested on: NCI-H1437
Procedure, shortened: (§1)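 Relative viability is defined as nuclei in treated wells over nuclei in vehicle wells. Duplicate plates were run and medians reported. Lung cancer cell lines in 1536-well plates were dosed by pin tool one day after seeding, with one drug or with a fixed anchor-drug dose plus five library-drug doses (not always all listed) in √10 steps, and nuclei were counted after 5 days.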

NCI-H1755 = tested on: NCI-H1755
Procedure, shortened: as §1

NCI-H2405 = tested on: NCI-H2405
Procedure, shortened: as §1

NCI-H322M = tested on: NCI-H322M
Procedure, shortened: as §1

NCI-H727 = tested on: NCI-H727
Procedure, shortened: as §1

LOU-NH91 = tested on: LOU-NH91
Procedure, shortened: as §1

ChaGo-K-1 = tested on: ChaGo-K-1
Procedure, shortened: as §1

ABC-1 = tested on: ABC-1
Procedure, shortened: as §1

NCI-H2009 = tested on: NCI-H2009
Procedure, shortened: as §1

HCC-78 = tested on: HCC-78
Procedure, shortened: as §1

NCI-H441 = tested on: NCI-H441
Procedure, shortened: as §1

SK-MES-1 = tested on: SK-MES-1
Procedure, shortened: as §1

UMC-11 = tested on: UMC-11
Procedure, shortened: as §1

RERF-LC-KJ = tested on: RERF-LC-KJ
Procedure, shortened: as §1

HOP-62 = tested on: HOP-62
Procedure, shortened: as §1

NCI-H1355 = tested on: NCI-H1355
Procedure, shortened: as §1

NCI-H2085 = tested on: NCI-H2085
Procedure, shortened: as §1

NCI-H650 = tested on: NCI-H650
Procedure, shortened: as §1

LCLC-97TM1 = tested on: LCLC-97TM1
Procedure, shortened: as §1

NCI-H2170 = tested on: NCI-H2170
Procedure, shortened: as §1

NCI-H2023 = tested on: NCI-H2023
Procedure, shortened: as §1

NCI-H23 = tested on: NCI-H23
Procedure, shortened: as §1

## O=c1[nH]c2ccccc2n1C1CCN(CCCC(c2ccc(F)cc2)c2ccc(F)cc2)CC1 [Pimozide] + O=C(CCCCCCC(=O)Nc1ccccc1)NO [Vorinostat] (partner 1 µM)
NCI-H1437; first compound 0.08 µM
  relative viability: 0.786
NCI-H1437; first compound 0.253 µM
  relative viability: 0.763
NCI-H1437; first compound 0.8 µM
  relative viability: 0.767
NCI-H1437; first compound 2.53 µM
  relative viability: 0.67
NCI-H1437; first compound 8 µM
  relative viability: 0.405
NCI-H1755; first compound 0.08 µM
  relative viability: 0.886
NCI-H1755; first compound 0.253 µM
  relative viability: 0.668
NCI-H1755; first compound 0.8 µM
  relative viability: 0.721
NCI-H1755; first compound 2.53 µM
  relative viability: 0.738
NCI-H1755; first compound 8 µM
  relative viability: 0.682
NCI-H2405; first compound 0.08 µM
  relative viability: 1.01
NCI-H2405; first compound 0.253 µM
  relative viability: 0.964
NCI-H2405; first compound 0.8 µM
  relative viability: 0.955
NCI-H2405; first compound 2.53 µM
  relative viability: 1.01
NCI-H2405; first compound 8 µM
  relative viability: 0.791
NCI-H322M; first compound 0.08 µM
  relative viability: 0.885
NCI-H322M; first compound 0.253 µM
  relative viability: 0.844
NCI-H322M; first compound 0.8 µM
  relative viability: 0.88
NCI-H322M; first compound 2.53 µM
  relative viability: 0.885
NCI-H322M; first compound 8 µM
  relative viability: 0.786
NCI-H727; first compound 0.08 µM
  relative viability: 1.2
NCI-H727; first compound 0.253 µM
  relative viability: 1.13
NCI-H727; first compound 0.8 µM
  relative viability: 1.11
NCI-H727; first compound 2.53 µM
  relative viability: 1.15
NCI-H727; first compound 8 µM
  relative viability: 1.17
LOU-NH91; first compound 0.08 µM
  relative viability: 0.741
LOU-NH91; first compound 0.253 µM
  relative viability: 0.883
LOU-NH91; first compound 0.8 µM
  relative viability: 0.852
LOU-NH91; first compound 2.53 µM
  relative viability: 0.98
LOU-NH91; first compound 8 µM
  relative viability: 0.872
ChaGo-K-1; first compound 0.08 µM
  relative viability: 0.726
ChaGo-K-1; first compound 0.253 µM
  relative viability: 0.668
ChaGo-K-1; first compound 0.8 µM
  relative viability: 0.794
ChaGo-K-1; first compound 2.53 µM
  relative viability: 0.841
ChaGo-K-1; first compound 8 µM
  relative viability: 0.758
ABC-1; first compound 0.08 µM
  relative viability: 1.3
ABC-1; first compound 0.253 µM
  relative viability: 1.15
ABC-1; first compound 0.8 µM
  relative viability: 0.884
ABC-1; first compound 2.53 µM
  relative viability: 0.908
ABC-1; first compound 8 µM
  relative viability: 0.719
NCI-H2009; first compound 0.08 µM
  relative viability: 0.639
NCI-H2009; first compound 0.253 µM
  relative viability: 0.764
NCI-H2009; first compound 0.8 µM
  relative viability: 0.651
NCI-H2009; first compound 2.53 µM
  relative viability: 0.698
NCI-H2009; first compound 8 µM
  relative viability: 0.694
HCC-78; first compound 0.08 µM
  relative viability: 0.371
HCC-78; first compound 0.8 µM
  relative viability: 0.369
HCC-78; first compound 2.53 µM
  relative viability: 0.453
HCC-78; first compound 8 µM
  relative viability: 0.447
NCI-H441; first compound 0.08 µM
  relative viability: 0.699
NCI-H441; first compound 0.253 µM
  relative viability: 0.657
NCI-H441; first compound 0.8 µM
  relative viability: 0.74
NCI-H441; first compound 2.53 µM
  relative viability: 0.857
NCI-H441; first compound 8 µM
  relative viability: 0.687
SK-MES-1; first compound 0.08 µM
  relative viability: 1.13
SK-MES-1; first compound 0.253 µM
  relative viability: 1.02
SK-MES-1; first compound 0.8 µM
  relative viability: 0.991
SK-MES-1; first compound 2.53 µM
  relative viability: 1.06
SK-MES-1; first compound 8 µM
  relative viability: 0.996
UMC-11; first compound 0.08 µM
  relative viability: 0.426
UMC-11; first compound 0.253 µM
  relative viability: 0.388
UMC-11; first compound 0.8 µM
  relative viability: 0.348
UMC-11; first compound 2.53 µM
  relative viability: 0.382
UMC-11; first compound 8 µM
  relative viability: 0.318
RERF-LC-KJ; first compound 0.08 µM
  relative viability: 0.616
RERF-LC-KJ; first compound 0.253 µM
  relative viability: 0.677
RERF-LC-KJ; first compound 0.8 µM
  relative viability: 0.612
RERF-LC-KJ; first compound 2.53 µM
  relative viability: 0.463
RERF-LC-KJ; first compound 8 µM
  relative viability: 0.613
HOP-62; first compound 0.08 µM
  relative viability: 0.704
HOP-62; first compound 0.253 µM
  relative viability: 0.642
HOP-62; first compound 2.53 µM
  relative viability: 0.494
HOP-62; first compound 8 µM
  relative viability: 0.416
NCI-H1355; first compound 0.08 µM
  relative viability: 0.592
NCI-H1355; first compound 0.253 µM
  relative viability: 0.597
NCI-H1355; first compound 0.8 µM
  relative viability: 0.547
NCI-H1355; first compound 2.53 µM
  relative viability: 0.607
NCI-H1355; first compound 8 µM
  relative viability: 0.608
NCI-H2085; first compound 0.08 µM
  relative viability: 0.77
NCI-H2085; first compound 0.253 µM
  relative viability: 0.861
NCI-H2085; first compound 0.8 µM
  relative viability: 0.723
NCI-H2085; first compound 2.53 µM
  relative viability: 0.802
NCI-H2085; first compound 8 µM
  relative viability: 0.741
NCI-H650; first compound 0.08 µM
  relative viability: 0.455
NCI-H650; first compound 0.253 µM
  relative viability: 0.386
NCI-H650; first compound 0.8 µM
  relative viability: 0.399
NCI-H650; first compound 2.53 µM
  relative viability: 0.454
NCI-H650; first compound 8 µM
  relative viability: 0.452
LCLC-97TM1; first compound 0.08 µM
  relative viability: 0.753
LCLC-97TM1; first compound 0.253 µM
  relative viability: 0.738
LCLC-97TM1; first compound 0.8 µM
  relative viability: 0.455
LCLC-97TM1; first compound 2.53 µM
  relative viability: 0.526
LCLC-97TM1; first compound 8 µM
  relative viability: 0.584
NCI-H2170; first compound 0.08 µM
  relative viability: 0.717
NCI-H2170; first compound 0.253 µM
  relative viability: 0.848
NCI-H2170; first compound 0.8 µM
  relative viability: 0.808
NCI-H2170; first compound 2.53 µM
  relative viability: 0.793
NCI-H2170; first compound 8 µM
  relative viability: 0.771
NCI-H2023; first compound 0.08 µM
  relative viability: 0.583
NCI-H2023; first compound 0.253 µM
  relative viability: 0.747
NCI-H2023; first compound 0.8 µM
  relative viability: 0.353
NCI-H2023; first compound 2.53 µM
  relative viability: 0.547
NCI-H2023; first compound 8 µM
  relative viability: 0.484
NCI-H23; first compound 0.08 µM
  relative viability: 0.573
NCI-H23; first compound 0.253 µM
  relative viability: 0.551
NCI-H23; first compound 0.8 µM
  relative viability: 0.49
NCI-H23; first compound 2.53 µM
  relative viability: 0.575
NCI-H23; first compound 8 µM
  relative viability: 0.52
